Data set [1] addresses Mcl-1 (Homo sapiens, UniProt Q07820). The data set can be described thus: FP-based binding assay, Mcl-1. The following applies: for IC50: Table 4, FP-based assay, read-out: Binding Affinities Mcl-1 IC50 ± SD.
Data set [2] has as its system H146 cells. The data set can be described thus: Cell growth assay (WST-8), H146. It counts as cell-based. Particulars: Homo sapiens, NCI-H146, 96 h; Table 4, 4 days; read-out: Cell Growth Inhibition (IC50 ± SD, nM) H146. The protocol: (§1) RS4;11 and H146 cells were seeded in 96-well cell culture plates at a density of 10,000 cells/well with serially diluted compounds and incubated at 37° C. in an atmosphere of 95% air and 5% CO2 for 4 days. Cell viability was determined using the WST-8 (2-(2-methoxy-4-nitrophenyl)-3-(4-nitrophenyl)-5-(2,4-disulfophenyl)-2H-tetrazolium, monosodium salt) based Cell Counting-8 Kit (Dojindo Molecular Technologies, Inc., Rockville, Md.) according to the manufacture's instruction. Briefly, WST-8 was added to each well at a final concentration of 10% (v/v), and then the plates were incubated at 37° C. for 1˜2 hours for color development. The absorbance was measured at 450 nm using a SPECTRAmax PLUS plate reader (Molecular Devices, Sunnyvale, Calif.). The half maximal inhibitory concentration (IC50) was calculated using the GraphPad Prism 5 software (GraphPad Software, La Jolla, Calif.).

For data set [3], the target named is Bcl-xL (Homo sapiens, UniProt Q07817). The data set can be described thus: FP-based binding assay, Bcl-xL. The following applies: for Ki: Binding Affinities Bcl-xL Ki ± SD (nM), Table 4, * Ki is an estimate, compound more potent than the tracer.
Data set [4] has as its system ML-2 acute myeloid leukemia (AML) cell line. The data set is described as follows: Cell growth assay (WST-8), ML-2. It counts as cell-based. Particulars: Table 4; read-out: Cell Growth Inhibition (IC50 ± SD, nM) ML-2. In general terms: Tetrazolium dyes change colour on reduction, which living cells bring about.
The subject of data set [5] is RS4;11 cells. The data set can be described thus: Cell growth assay (WST-8), RS4;11. It counts as cell-based. The following applies: Homo sapiens, RS4-11, 96 h; Table 4, 4 days; read-out: Cell Growth Inhibition (IC50 ± SD, nM) RS4;11. The protocol:
as §1

Data set [6] has as its target Bcl-2 (Homo sapiens, UniProt P10415). The data set is described as follows: FP-based binding assay, Bcl-2.
The nature of data set [7]: Toxicity (maximum tolerated dose) in SCID mice. Format: in vivo.
Description: These experiments established the maximum tolerated doses (MTD).
Setting [8] is: read-out: Binding Affinities Bcl-xL IC50 ± SD, Table 4, FP-based assay.

“And” between values parts separate entries of the source, which are not always exact repeats. Equal entries are not always repeated. Where two headings read alike, the source gives them in different places.

Chain of Bcl-xL (Q07817 whole entry): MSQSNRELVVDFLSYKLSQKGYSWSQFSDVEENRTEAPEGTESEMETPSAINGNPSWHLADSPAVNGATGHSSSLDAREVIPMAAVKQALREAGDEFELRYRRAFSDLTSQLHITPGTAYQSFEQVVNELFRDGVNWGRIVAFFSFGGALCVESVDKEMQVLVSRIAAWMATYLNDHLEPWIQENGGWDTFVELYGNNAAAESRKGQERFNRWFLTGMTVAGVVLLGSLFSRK
Chain of Mcl-1 (Q07820 whole entry, species assumed): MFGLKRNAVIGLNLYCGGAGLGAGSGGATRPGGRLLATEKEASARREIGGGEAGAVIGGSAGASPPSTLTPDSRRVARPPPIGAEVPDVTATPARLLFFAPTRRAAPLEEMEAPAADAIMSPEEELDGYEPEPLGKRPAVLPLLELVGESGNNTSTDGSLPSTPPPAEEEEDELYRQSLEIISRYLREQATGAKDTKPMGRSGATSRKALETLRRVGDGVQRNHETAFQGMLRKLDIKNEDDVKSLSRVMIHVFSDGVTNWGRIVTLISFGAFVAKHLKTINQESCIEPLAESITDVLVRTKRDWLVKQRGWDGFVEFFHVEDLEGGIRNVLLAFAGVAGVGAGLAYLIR
Chain of Bcl-2 (P10415 whole entry): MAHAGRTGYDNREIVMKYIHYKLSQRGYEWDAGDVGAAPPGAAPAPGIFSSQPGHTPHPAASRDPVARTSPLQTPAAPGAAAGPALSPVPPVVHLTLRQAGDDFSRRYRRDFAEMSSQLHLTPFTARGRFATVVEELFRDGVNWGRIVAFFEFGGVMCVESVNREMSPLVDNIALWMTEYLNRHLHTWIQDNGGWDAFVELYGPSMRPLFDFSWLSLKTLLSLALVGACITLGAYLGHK

In general, IC50 refers to the point on the concentration scale where inhibition reaches its midpoint. A word on the Ki: it is a measure of affinity in units of concentration, obtained from inhibition or displacement. For `CNC(=O)c1c(-c2cccc(N3CCN(c4ccc(NS(=O)(=O)c5ccc(N[C@H](CCN6CCOCC6)CSc6ccccc6)c([N+](=O)[O-])c5)cc4)CC3)c2)c(-c2ccc(Cl)cc2)n(C)c1C` [Compound 124], the IC50 is more than 10000 nM in data set [1]; 178 ± 65 nM in data set [2]; 5 ± 1 nM in data set [3]; 382 ± 138 nM in data set [4]; 89 ± 30 nM in data set [5]; 14 ± 2 nM in data set [6]. The Ki was 1 ± 0.2 nM in data set [3] and 3 ± 0.6 nM in data set [6].

On to `CNC(=O)c1c(-c2cccc(N3CCN(c4ccc(NS(=O)(=O)c5ccc(N[C@H](CCN(C)C)CSc6ccccc6)c([N+](=O)[O-])c5)cc4)CC3)c2)c(-c2ccc(Cl)cc2)n(C)c1C` [Compound 125], for which the IC50 in data set [1] was more than 10000 nM; in data set [2], 36 ± 26 nM; in data set [3] (setting [8]), 6 ± 3 nM; in data set [4] it was 215 ± 52 nM; in data set [5] it was 74 ± 44 nM; in data set [6] (read-out: Binding Affinities Bcl-2 IC50 ± SD, Table 4, FP-based assay) it was 5 ± 1 nM. The Ki in data set [3] is 1.6 ± 0.8 nM; in data set [6] (read-out: Binding Affinities Bcl-2 Ki ± SD, Table 4, * Ki is an estimate, compound more potent than the tracer) it was 1.1 ± 0.2 nM.

As for `CN(C)CC[C@@H](CSc1ccccc1)Nc1ccc(S(=O)(=O)Nc2ccc(N3CCN(c4cccc(-c5ccnn5-c5ccc(Cl)cc5)c4)CC3)cc2)cc1[N+](=O)[O-]` [Compound 130], the “Weight loss or other signs of toxicity” value in data set [7] (female SCID mice, intravenously, daily, 5-times a week for 2 weeks, 25 mg/kg) is “no or minimal weight loss or other signs of toxicity”.

In the case of `Cc1c(C(=O)NS(C)(=O)=O)c(-c2cccc(N3CCN(c4ccc(NS(=O)(=O)c5ccc(N[C@H](CCN(C)C)CSc6ccccc6)c([N+](=O)[O-])c5)cc4)CC3)c2)c(-c2ccc(Cl)cc2)n1C` [Compound 133], the IC50 is more than 10000 nM in data set [1]; 38 ± 22 nM in data set [2]; 5 ± 1 nM in data set [3] (setting [8]); 160 ± 53 nM in data set [4]; 87 ± 19 nM in data set [5]; 1 ± 0.2 nM in data set [6]. Besides, the Ki was 1.3 ± 0.3 nM in data set [3] and less than 1 nM in data set [6]. Moreover, the “Weight loss at higher dose” value in data set [7] (SCID mice, 50 mg/kg) was “caused weight loss”.

In the case of `Cc1cc(-c2cccc(N3CCN(c4ccc(NS(=O)(=O)c5ccc(N[C@H](CCN(C)C)CSc6ccccc6)c([N+](=O)[O-])c5)cc4)CC3)c2)c(-c2ccc(Cl)cc2)n1C` [Compound 168, (R)—N-(4-(4-(3-(2-(4-chlorophenyl)-1,5-dimethyl-1H-pyrrol-3-yl)phenyl)piperazin-1-yl)phenyl)-4-((4-(dimethylamino)-1-(phenylthio)butan-2-yl)amino)-3-nitrobenzenesulfonamide], the IC50 in data set [1] is more than 5000 nM. For the same compound, in data set [3], the IC50 worked out at 3 ± 0.4 nM; the Ki is 3 nM and < 1 nM.

As to `Cc1c(C(=O)O)c(-c2cccc(N3CCN(c4ccc(NS(=O)(=O)c5ccc(N[C@H](CCN(C)C)CSc6ccccc6)c([N+](=O)[O-])c5)cc4)CC3)c2)c(-c2ccc(Cl)cc2)n1C` [Compound 178, (R)-5-(4-chlorophenyl)-4-(3-(4-(4-(4-((4-(dimethylamino)-1-(phenylthio)butan-2-yl)amino)-3-nitrophenylsulfonamido)phenyl)piperazin-1-yl)phenyl)-1,2-dimethyl-1H-pyrrole-3-carboxylic acid], the IC50 in data set [1] was more than 10000 nM; in data set [2], 87 ± 60 nM; in data set [3] (setting [8]) it was 6 ± 4 nM; in data set [4] it was 124 ± 62 nM; in data set [5], 26 ± 4 nM; in data set [6], 1 ± 0.1 nM. Moreover, the Ki is 1.6 ± 1 nM in data set [3] and less than 1 nM in data set [6].

Take `Cc1c(C(=O)O)c(-c2cccc(N3CCN(c4ccc(NS(=O)(=O)c5ccc(N[C@H](CCN(C)C)CSc6ccccc6)c(S(=O)(=O)C(F)(F)F)c5)cc4)CC3)c2)c(-c2ccc(Cl)cc2)n1C` [Compound 185, (R)-5-(4-chlorophenyl)-4-(3-(4-(4-(4-((4-(dimethylamino)-1-(phenylthio)butan-2-yl)amino)-3-((trifluoromethyl)sulfonyl)phenylsulfonamido)phenyl)piperazin-1-yl)phenyl)-1,2-dimethyl-1H-pyrrole-3-carboxylic acid]: the IC50 in data set [1] is more than 10000 nM; in data set [2], 177 ± 73 nM; in data set [3] it was 5 ± 4 nM; in data set [4] it was 550 ± 204 nM; in data set [5], 81 ± 7 nM; in data set [6] it was 2.2 ± 1.6 nM. The Ki in data set [3] was 1.3 ± 1 nM; in data set [6], less than 1 nM.

On to `Cc1c(C(=O)O)c(-c2cccc(N3CCN(c4ccc(NS(=O)(=O)c5ccc(N[C@H](CCN6CCOCC6)CSc6ccccc6)c(S(=O)(=O)C(F)(F)F)c5)cc4)CC3)c2)c(-c2ccc(Cl)cc2)n1C` [Compound 186, (R)-5-(4-chlorophenyl)-1,2-dimethyl-4-(3-(4-(4-(4-((4-morpholino-1-(phenylthio)butan-2-yl)amino)-3-((trifluoromethyl)sulfonyl)phenylsulfonamido)phenyl)piperazin-1-yl)phenyl)-1H-pyrrole-3-carboxylic acid], for which the IC50 in data set [1] was more than 10000 nM; in data set [2], 430 ± 207 nM; in data set [3] it was 6 ± 3 nM; in data set [4] it was 1090 ± 562 nM; in data set [5], 493 ± 64 nM; in data set [6], 14 ± 3 nM. In addition, the results for the Ki in data set [3] and in data set [6] were 1.6 ± 0.8 nM and 3.4 ± 0.6 nM, respectively.

As for `Cc1c(C(=O)O)c(-c2cccc(N3CCN(c4ccc(NS(=O)(=O)c5ccc(N[C@H](CCN6CCOCC6)CSc6ccccc6)c([N+](=O)[O-])c5)cc4)CC3)c2)c(-c2ccc(Cl)cc2)n1C` [Compound 187, (R)-5-(4-chlorophenyl)-1,2-dimethyl-4-(3-(4-(4-(4-((4-morpholino-1-(phenylthio)butan-2-yl)amino)-3-nitrophenylsulfonamido)phenyl)piperazin-1-yl)phenyl)-1H-pyrrole-3-carboxylic acid], the half-maximal inhibitory concentration (IC50) in data set [1] was more than 10000 nM; in data set [2] it was 181 ± 61 nM; in data set [3] it was 5 ± 2 nM; in data set [4], 225 ± 49 nM; in data set [5] it was 99 ± 28 nM; in data set [6] it was 2 ± 1 nM. In addition, the Ki in data set [3] was 1.3 ± 0.6 nM; in data set [6], less than 1 nM.

Usually Kd stands for a measure of binding affinity in units of concentration. With “Flu-BID: "Homemade fluorescein labeled" "BID (79-99)" peptide, fluorescent probe "in FP assays for" Mcl-1 [reference compound]”, the Kd in data set [1] (saturation FP, 2 nM probe, increasing protein, read-out: Kd of fluorescent probe to Mcl-1) amounted to 6.8 ± 1.5 nM.

The record behind these values is patent US8691184B2, “Bcl-2/Bcl-xL inhibitors and therapeutic methods using the same” (The Regents of the University of Michigan, priority 2011, dated 2014).
